Measured values published in patent US20100136538A1, “MARKING REAGENTS BEARING DIAZO AND NITRO FUNCTIONS, METHODS FOR THE SYNTHESIS OF SUCH REAGENTS AND METHODS FOR DETECTING BIOLOGICAL MOLECULES” (Biomerieux, priority 2007, published 2010).

Columns and labels:
[1] = Accelerated stability in liquid medium (125 mM in 96/4 DMSO/methanol, ambient temperature), HPLC purity; type: physicochemical; conditions: 22° C., at 10 days
Procedure: For this purpose, an accelerated stability study is carried out under extreme conditions, in which the compounds are stored at 125 mM in a 96/4 DMSO/methanol mixture at ambient temperature (22° C.+/−1° C.). Note that these are extreme storage conditions.
The three compounds meta nitro DKB, para nitro DKB, and BBP, which are clearly shown in FIG. 10, are dissolved at 125 mM in a 96/4 DMSO/methanol mixture and are stored at ambient temperature (22° C. plus or minus 1° C.). At regular intervals subsequently, 2 μl of these solutions are injected in HPLC (basic method, Waters HPLC system) in order to measure the degradation of the principal product by integrating all of the peaks in the chromatogram (PDA Max Plot in the Empower 2 software).

[2] = type: physicochemical
Procedure: The three compounds meta nitro DKB, para nitro DKB, and BBP are dissolved at 250 mM in a Tris HCl 10 mM, pH 7.5, and 10% Trehalose solution. The solutions are lyophilized overnight in aliquots of 50 nmol. The dry products are then stored at 4° C. At regular intervals these aliquots are dissolved in methanol and 15 μl of these solutions are injected in HPLC (Waters) in order to measure the degradation of the principal product by integration of all of the peaks in the chromatogram (PDA Max Plot in the Empower software).

[Bio-EG3]2-PDAM [BBP]
purity of the initial compound (HPLC) [1]: < 10%
stability in dry form [2]: does not withstand lyophilization
breakdown during lyophilization ([2]; Tris HCl 10 mM pH 7.5, 10% Trehalose, lyophilized overnight): > 60%
